Experimental data as given in US20120258945A1, “Association Between Ferroquine and an Artemisinine Derivative for Treating Malaria” (priority 2005, published 2012).

Experiments:
[1] = test system: Plasmodium vinckei vinckei; assay: In vivo activity in mice infected with Plasmodium vinckei vinckei: parasitaemia at D4 after 4 days of oral treatment
Text: Female “Swiss” mice, aged eight weeks and one day, are inoculated with parasites of Plasmodium vinckei vinckei type (Rodhain, 1952). The mice are acclimatized beforehand for two weeks. The mice are given food and drink ad libitum.
The Plasmodium vinckei vinckei strain is maintained by weekly infection in the mouse with 10^7 parasitized erythrocytes suspended in a phosphate buffered saline (0.9%).
(§1) This administration is repeated on the following three days (D1 to D3) (Peter, 1987). When the two products are administered in combination, the artesunate is administered first, the ferroquine is administered second, 45 minutes later. On the fourth day, a blood smear is taken from the tail of the mouse. The sample is fixed on a plate. The number of parasitized blood cells is counted under a microscope. The parasitaemia is expressed as percentage of infected erythrocytes present in the sample on a sample of 1000 cells. Six or seven mice are used per dose.
The IC50 is defined as the concentration in mg/kg/day which inhibits the blood parasitaemia by 50% at the fourth day (D4) after infection (D0) and four days of treatment (D0,D1,D2,D3). 0% inhibition corresponds to the mean of the parasitaemias observed in the untreated infected mice. […]
The IC50 of ferroquine is determined after administration of concentrations of between 1 and 10 mg/kg/day. […]

[2] = test system: Plasmodium vinckei vinckei; assay: Mortality / survival and curative dose in mice infected with Plasmodium vinckei vinckei; assay type: in vivo; details: oral, 4 days of treatment, compounds administered separately
Experimental: as §1, with “On the first day of treatment (D0), one hour after infection (10^7 parasitized erythrocytes suspended in a phosphate buffered saline (0.9%)), the animal is administered, orally, as appropriate, with ferroquine, with artesunate or with a mixture of the two active ingredients. This” for “This”
Each day, from day 5 after infection, the number of dead mice is counted so as to determine the percentage mortality (number of mice dead relative to the number of mice of the batch considered). The curative dose is the first dose at which all the mice of the batch survive.

For `C[C@@H]1CC[C@H]2[C@@H](C)C(OC(=O)CCC(=O)[O-])O[C@@H]3O[C@]4(C)CC[C@@H]1C32OO4.[Na+]` (stereo partly drawn) [artesunate], the “IC50 (dose which inhibits the blood parasitaemia by 50% at D4)” value ([1]; 4 days of treatment (D0-D3), parasitaemia at D4, compounds administered separately, linear interpolation of dose-response curve) was 2.79 mg/kg/day, the “Parasitaemia (as %), mean” value ([1]; artesunate 6 mg/kg/day alone (ferroquine 0), 4 days, infected erythrocytes at fourth day after infection) was 7.1% and the “curative dose (first dose at which all the mice of the batch survive)” value [2] was “greater than 15 mg/kg/day”.
